Assay results taken from patent US11111237B2, “Bicyclic compound and use thereof” (SK BIOPHARMACEUTICALS CO., LTD., priority 2019, dated 2021).
pIC50: −log10 of the molar value. Counter-ions that a name gives are not always drawn.

Target: PRMT5-MEP50 enzyme complex (Homo sapiens (Human), UniProt O14744)
Experiment: PRMT5 enzyme activity in vitro assay (methylation of histone H4R3, ELISA absorbance at 450 nm)
Assay type: biochemical
Conditions: SAM, histone H4 peptide, room temperature 2 hours, 8 points from 10 μM to 0.128 nM
Outline: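 IC50 was derived from ELISA absorbance at 450 nm, using primary and HRP antibodies against H4R3 methylation on immobilised histone H4 peptide (residues 1-20). Compounds (10 μM to 0.128 nM, 8 points, 1:5) were incubated 2 h at room temperature with the PRMT5-MEP50 complex and SAM, diluted to 5 μg/mL and 2 μM respectively.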

Chain of PRMT5-MEP50 enzyme complex (O14744 2-637): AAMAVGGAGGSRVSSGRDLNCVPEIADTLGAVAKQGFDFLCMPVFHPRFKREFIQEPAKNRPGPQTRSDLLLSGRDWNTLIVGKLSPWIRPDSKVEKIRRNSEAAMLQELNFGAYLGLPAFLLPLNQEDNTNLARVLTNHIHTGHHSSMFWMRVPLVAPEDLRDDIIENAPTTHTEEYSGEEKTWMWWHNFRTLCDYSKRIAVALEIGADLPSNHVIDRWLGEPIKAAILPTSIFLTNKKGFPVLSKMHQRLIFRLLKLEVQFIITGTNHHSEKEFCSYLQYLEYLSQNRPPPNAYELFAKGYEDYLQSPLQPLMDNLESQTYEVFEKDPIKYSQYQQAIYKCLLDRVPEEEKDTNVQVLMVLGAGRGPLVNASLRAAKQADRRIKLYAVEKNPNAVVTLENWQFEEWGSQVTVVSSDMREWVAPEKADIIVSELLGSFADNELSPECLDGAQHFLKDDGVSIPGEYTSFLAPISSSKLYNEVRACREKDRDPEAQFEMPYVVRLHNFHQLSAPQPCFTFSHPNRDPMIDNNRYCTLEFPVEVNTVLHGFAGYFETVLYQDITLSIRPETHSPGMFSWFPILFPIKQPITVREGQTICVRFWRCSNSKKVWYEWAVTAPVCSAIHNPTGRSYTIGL
Chain of PRMT5-MEP50 enzyme complex (Q9BQA1 2-342 partner): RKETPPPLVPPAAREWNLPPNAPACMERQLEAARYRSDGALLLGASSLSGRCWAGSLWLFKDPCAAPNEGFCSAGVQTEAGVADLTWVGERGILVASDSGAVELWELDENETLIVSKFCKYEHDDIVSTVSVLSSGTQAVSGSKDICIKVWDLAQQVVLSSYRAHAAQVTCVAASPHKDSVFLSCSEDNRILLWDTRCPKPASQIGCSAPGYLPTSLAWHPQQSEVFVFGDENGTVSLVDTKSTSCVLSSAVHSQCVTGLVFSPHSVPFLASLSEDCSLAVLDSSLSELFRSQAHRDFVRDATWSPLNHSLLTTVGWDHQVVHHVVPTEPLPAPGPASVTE

Compound | pIC50
C[C@H](O)CN1CCC(Oc2ccc3c(c2)O[C@H](C)CN(C[C@H](O)CN2CCc4ccccc4C2)C3=O)CC1 [Example 267, (2R)-4-[(2R)-3-(3,4-dihydro-1H-isoquinolin-2-yl)-2-hydroxy-propyl]-8-[[1-[(2S)-2-hydroxypropyl]-4-piperidyl]oxy]-2-methyl-2,3-dihydro-1,4-benzoxazepin-5-one] | 6.00 to 7.00
O=C(c1ccc2c(c1)OCCN(C[C@H](O)CN1CCc3ccccc3C1)C2=O)N1CCC(F)(F)C1 [Example 177, 8-(3,3-difluoropyrrolidin-1-carbonyl)-4-[(2R)-3-(3,4-dihydro-1H-isoquinolin-2-yl)-2-hydroxy-propyl]-2,3-dihydro-1,4-benzoxazepin-5-one] | 6.00 to 7.00
O=C1c2ccc(CN3CC4CCCC4C3)cc2OCCN1C[C@H](O)CN1CCc2ccccc2C1 (stereo partly drawn) [Example 34, 8-(3,3a,4,5,6,6a-hexahydro-1H-cyclopenta[c]pyrrol-2-ylmethyl)-4-[(2R)-3-(3,4-dihydro-1H-isoquinolin-2-yl)-2-hydroxy-propyl]-2,3-dihydro-1,4-benzoxazepin-5-one] | 7.00 to 9.00
O=C1c2ccc(OC3CCN(C4CC4)CC3)cc2OCCN1C[C@H](O)CN1CCc2ccccc2C1 [Example 90, 8-[(1-cyclopropyl-4-piperidyl)oxy]-4-[(2R)-3-(3,4-dihydro-1H-isoquinolin-2-yl)-2-hydroxy-propyl]-2,3-dihydro-1,4-benzoxazepin-5-one] | 7.00 to 9.00
CC1CN(C(=O)c2ccc3c(c2)OCCN(C[C@H](O)CN2CCc4ccccc4C2)C3=O)CC(C)O1 (stereo partly drawn) [Example 187, 4-[(2R)-3-(3,4-dihydro-1H-isoquinolin-2-yl)-2-hydroxy-propyl]-8-(2,6-dimethylmorpholin-4-carbonyl)-2,3-dihydro-1,4-benzoxazepin-5-one] | 6.00 to 7.00
CCC1CCCN1Cc1ccc2c(c1)OCCN(C[C@H](O)CN1CCc3ccccc3C1)C2=O (stereo partly drawn) [Example 48, 4-[(2R)-3-(3,4-dihydro-1H-isoquinolin-2-yl)-2-hydroxy-propyl]-8-[(2-ethylpyrrolidin-1-yl)methyl]-2,3-dihydro-1,4-benzoxazepin-5-one] | 6.00 to 7.00
O=C1c2ccc(-c3ccncc3)cc2OCCN1C[C@H](O)CN1CCc2ccccc2C1 [Example 225, 4-[(2R)-3-(3,4-dihydro-1H-isoquinolin-2-yl)-2-hydroxy-propyl]-8-(4-pyridyl)-2,3-dihydro-1,4-benzoxazepin-5-one] | 6.00 to 7.00
O=C(c1ccc2c(c1)OCCN(C[C@H](O)CN1CCc3ccccc3C1)C2=O)N1CCC(F)CC1 [Example 184, 4-[(2R)-3-(3,4-dihydro-1H-isoquinolin-2-yl)-2-hydroxy-propyl]-8-(4-fluoropiperidine-1-carbonyl)-2,3-dihydro-1,4-benzoxazepin-5-one] | 6.00 to 7.00
CCC(=O)N1CC(Oc2ccc3c(c2)OCCN(C[C@H](O)CN2CCc4ccccc4C2)C3=O)C1 [Example 84, 4-[(2R)-3-(3,4-dihydro-1H-isoquinolin-2-yl)-2-hydroxy-propyl]-8-(1-propanoylazetidin-3-yl)oxy-2,3-dihydro-1,4-benzoxazepin-5-one] | 6.00 to 7.00
O=C(c1ccc2c(c1)OCCN(C[C@H](O)CN1CCc3ccccc3C1)C2=O)N1CCC(C(F)(F)F)CC1 [Example 186, 4-[(2R)-3-(3,4-dihydro-1H-isoquinolin-2-yl)-2-hydroxy-propyl]-8-[4-(trifluoromethyl)piperidine-1-carbonyl]-2,3-dihydro-1,4-benzoxazepin-5-one] | 6.00 to 7.00
CC(=O)N1CCC(Oc2ccc3c(c2)OCCN(C[C@H](O)CN2CCc4ccccc4C2)C3=O)C1 (stereo partly drawn) [Example 80, 8-(1-acetylpyrrolidin-3-yl)oxy-4-[(2R)-3-(3,4-dihydro-1H-isoquinolin-2-yl)-2-hydroxy-propyl]-2,3-dihydro-1,4-benzoxazepin-5-one] | 6.00 to 7.00
O=C1c2ccncc2OCCN1C[C@H](O)CN1CCc2ccccc2C1 [Example 152, 4-[(2R)-3-(3,4-dihydro-1H-isoquinolin-2-yl)-2-hydroxy-propyl]-2,3-dihydropyrido[4,3-f][1,4]oxazepin-5-one] | 6.00 to 7.00
N#Cc1ccc2c(c1)CCCN(C[C@H](O)CN1CCc3ccccc3C1)C2=O [Example 9, 2-[(2R)-3-(3,4-dihydro-1H-isoquinolin-2-yl)-2-hydroxy-propyl]-1-oxo-4,5-dihydro-3H-2-benz azepin-7-carbonitrile] | 6.00 to 7.00
CN1CCC[C@@H](Oc2ccc3c(c2)OCCN(C[C@H](O)CN2CCc4ccccc4C2)C3=O)C1 [Example 218, 4-[(2R)-3-(3,4-dihydro-1H-isoquinolin-2-yl)-2-hydroxypropyl]-8-[(1-methyl-3-piperidyl)oxy]-2,3-dihydro-1,4-benzoxazepin-5-one] | 6.00 to 7.00
CC(=O)N1CCC(Oc2ccc3c(c2)OCCN(C[C@H](O)CN2CCc4ccccc4C2)C3=O)CC1 [Example 78, 8-[(1-acetyl-4-piperidyl)oxy]-4-[(2R)-3-(3,4-dihydro-1H-isoquinolin-2-yl)-2-hydroxy-propyl]-2,3-dihydro-1,4-benzoxazepin-5-one] | 7.00 to 9.00
CN1CCN(C[C@H](O)CN2CCc3ccccc3C2)C(=O)c2ccc(C3=CCCCC3)cc21 [Example 118, 8-(cyclohexen-1-yl)-4-[(2R)-3-(3,4-dihydro-1H-isoquinolin-2-yl)-2-hydroxy-propyl]-1-methyl-2,3-dihydro-1,4-benzodiazepin-5-one] | 7.00 to 9.00
CC(c1ccc2c(n1)OC(C)(C)CN(C[C@H](O)CN1CCc3ccccc3C1)C2=O)N1CC2(COC2)C1 (stereo partly drawn) [Example 247, 4-[(2R)-3-(3,4-dihydro-1H-isoquinolin-2-yl)-2-hydroxy-propyl]-2,2-dimethyl-8-[1-(2-oxa-6-azaspiro[3.3]heptan-6-yl)ethyl]-3H-pyrido[3,2-f][1,4]oxazepin-5-one] | 6.00 to 7.00
CC1CC(Oc2ccc3c(c2)N(C)CCN(C[C@H](O)CN2CCc4ccccc4C2)C3=O)CCN1 (stereo partly drawn) [Example 138, 4-[(2R)-3-(3,4-dihydro-1H-isoquinolin-2-yl)-2-hydroxy-propyl]-1-methyl-8-[(2-methyl-4-piperidyl)oxy]-2,3-dihydro-1,4-benzodiazepin-5-one; dihydrochloride] | 6.00 to 7.00
CC1CC(C)CN(Cc2ccc3c(c2)OCCN(C[C@H](O)CN2CCc4ccccc4C2)C3=O)C1 (stereo partly drawn) [Example 33, 4-[(2R)-3-(3,4-dihydro-1H-isoquinolin-2-yl)-2-hydroxy-propyl]-8-[(3,5-dimethyl-1-piperidyl)methyl]-2,3-dihydro-1,4-benzoxazepin-5-one] | 6.00 to 7.00
CC(C)(C)OC(=O)N1CCC(Oc2ccc3c(c2)OCCN(C[C@H](O)CN2CCc4ccccc4C2)C3=O)CC1 [Example 77, tert-butyl 4-[[4-[(2R)-3-(3,4-dihydro-1H-isoquinolin-2-yl)-2-hydroxy-propyl]-5-oxo-2,3-dihydro-1,4-benzoxazepin-8-yl]oxy]piperidine-1-carboxylate] | 7.00 to 9.00
O=C1c2ccc(CN3CCC(F)(F)CC3)cc2OCCN1C[C@H](O)CN1CCc2ccccc2C1 [Example 31, 8-[(4,4-difluoro-1-piperidyl)methyl]-4-[(2R)-3-(3,4-dihydro-1H-isoquinolin-2-yl)-2-hydroxy-propyl]-2,3-dihydro-1,4-benzoxazepin-5-one] | 7.00 to 9.00
CC(=O)N1CCC(c2ccc3c(c2)OCCN(C[C@H](O)CN2CCc4ccccc4C2)C3=O)CC1 [Example 17, 8-(1-acetyl-4-piperidyl)-4-[(2R)-3-(3,4-dihydro-1H-isoquinolin-2-yl)-2-hydroxy-propyl]-2,3-dihydro-1,4-benzoxazepin-5-one] | 7.00 to 9.00
CC1(C)CN(C[C@H](O)CN2CCc3ccccc3C2)C(=O)c2ccc(C(=O)N3CCN4CCCC4C3)cc2O1 (stereo partly drawn) [Example 210, 8-(3,4,6,7,8,8a-hexahydro-1H-pyrrolo[1,2-a]pyrazine-2-carbonyl)-4-[(2R)-3-(3,4-dihydro-1H-isoquinolin-2-yl)-2-hydroxy-propyl]-2,2-dimethyl-3H-1,4-benzoxazepin-5-one] | 6.00 to 7.00
O=C1c2ccc(OCc3ccnc(F)c3)cc2OCCN1C[C@H](O)CN1CCc2ccccc2C1 [Example 58, 4-[(2R)-3-(3,4-dihydro-1H-isoquinolin-2-yl)-2-hydroxy-propyl]-8-[(2-fluoro-4-pyridyl)methoxy]-2,3-dihydro-1,4-benzoxazepin-5-one] | 7.00 to 9.00
CN1CCC(Oc2ccc3c(c2)OCCN(C[C@H](O)CN2CCc4ccccc4C2)C3=O)C1 (stereo partly drawn) [Example 98, 4-[(2R)-3-(3,4-dihydro-1H-isoquinolin-2-yl)-2-hydroxy-propyl]-8-(1-methylpyrrolidin-3-yl)oxy-2,3-dihydro-1,4-benzoxazepin-5-one] | 6.00 to 7.00
CC(=O)N1CC[C@H](Oc2ccc3c(c2)OCCN(C[C@H](O)CN2CCc4ccccc4C2)C3=O)C1 [Example 82, 8-[(3S)-1-acetylpyrrolidin-3-yl]oxy-4-[(2R)-3-(3,4-dihydro-1H-isoquinolin-2-yl)-2-hydroxy-propyl]-2,3-dihydro-1,4-benzoxazepin-5-one] | 6.00 to 7.00
O=C1c2ccc(C(F)(F)F)cc2OCCN1C[C@H](O)CN1CCc2ccccc2C1 [Example 5, 4-[(2R)-3-(3,4-dihydro-1H-isoquinolin-2-yl)-2-hydroxy-propyl]-8-(trifluoromethyl)-2,3-dihydro-1,4-benzoxazepin-5-one] | 6.00 to 7.00
COC1CCN(Cc2ccc3c(c2)OCCN(C[C@H](O)CN2CCc4ccccc4C2)C3=O)CC1 [Example 38, 4-[(2R)-3-(3,4-dihydro-1H-isoquinolin-2-yl)-2-hydroxy-propyl]-8-[(4-methoxy-1-piperidyl)methyl]-2,3-dihydro-1,4-benzoxazepin-5-one] | 6.00 to 7.00
CC(=O)N1CCCC(Oc2ccc3c(c2)OCCN(C[C@H](O)CN2CCc4ccccc4C2)C3=O)C1 (stereo partly drawn) [Example 79, 8-[(1-acetyl-3-piperidyl)oxy]-4-[(2R)-3-(3,4-dihydro-1H-isoquinolin-2-yl)-2-hydroxy-propyl]-2,3-dihydro-1,4-benzoxazepin-5-one] | 6.00 to 7.00
